Laboratory results taken from patent US20060009431A1, “Nitrosated and nitrosylated compounds, compositions and methods use” (NitroMed, Inc., priority 2003, published 2006).
Like-named read-outs stand apart in the source and are kept apart here.

Assays:
[1] = tested on: human coronary artery smooth muscle cells (CASMC); assay: Vascular smooth muscle cell (SMC) antiproliferation assay; assay type: cell-based; details: viable cell count (Trypan Blue exclusion) ~68 hours after compound addition
Protocol: Suppression of Proliferation of Human Coronary Artery Smooth Muscle Cells (CASMC)
Vascular Smooth Muscle Cell (SMC) Antiproliferation Assay
The cells used in this assay were human coronary artery smooth muscle cells (CASMC) supplied by Clonetics Corp. (San Diego, Calif.). They were maintained in SmGM-2 growth medium (Clonetics Corp.), which consisted of modified MCDB 131 medium supplemented with 5% (v/v) fetal bovine serum (FBS), 0.5 ng/mL human recombinant epidermal growth factor (EGF), 2 ng/mL human recombinant fibroblast growth factor (FGF), 5 μg/mL bovine insulin, 50 μg/mL gentamicin sulfate, and 50 ng/mL amphotericin B under humidified 95% air-5% CO2 at 37° C. Cells were used for experiments up to about 17 cumulative population doublings (i.e., passage 9); at this age they still stained positive for smooth muscle actin, a protein marker for smooth muscle cells.
For the SMC antiproliferation assay, the cells were seeded at 3×10^4 viable cells in 2 mL of SmGM-2 medium per well of a Corning 24 tissue culture well plate (Corning, N.Y.). Stock solutions of the test compounds were prepared just prior to addition to the cells by dissolving in DMSO at a concentration of 1000 times the highest concentration to be assayed. This stock solution was diluted, as required, with DMSO to lower concentrations. On the same day the cells were seeded, but after they had attached and spread out (about 3 hours), each test compound in varying concentrations (2 μL of the diluted stock solutions) was added to four replicate wells (n=4) for each concentration. Control cultures received 2 μL of DMSO per well (n=4). On the following morning, the cultures were examined microscopically and their condition recorded. On the third day after test compound addition (˜68 hours), the cultures were examined microscopically again and the viable cells counted with an hemacytometer following trypsinization with 0.25% trypsin-1 mM EDTA. Trypan Blue dye exclusion was used to discriminate between viable and dead cells. The results were usually presented as % of the control viable cell count (mean±SEM) and were used to determine the IC50 for the inhibition of proliferation of vascular smooth muscle cells.

[2] = Homo sapiens, n=4, read-out: IC 50 for the inhibition of proliferation of vascular smooth muscle cells, Nitrosated and/or Nitrosylated Compound
[3] = n=4, read-out: IC 50 for the inhibition of proliferation of vascular smooth muscle cells, Non-nitrosated and/or Non-nitrosylated Compound

Structure (SMILES)	IC50 [1, 2] [µM]	melting point [°C]	IC50 [1, 3] [µM]
C[C@]12CC[C@@H]3c4ccc(OC(=O)CCC(=O)O[C@H]5CO[C@H]6[C@@H]5OC[C@H]6O[N+](=O)[O-])cc4CC[C@H]3[C@@H]1CC[C@@H]2O [Example 32b, (1S,11S,14S,15S,10R)-14-Hydroxy-15-methyltetracyclo(8.7.0.0<2,7>0.0<11,15>)heptadeca-2,4,6-trien-5-yl(1S,2S,5S,6R)-6-(nitrooxy)-4,8-dioxabicyclo(3.3.0)oct-2-yl butane-1,4-dioate]	8	163 to 165	–
C[C@]12CC[C@@H]3c4ccc(OCC(=O)OCCC5(SN=O)C6CC7CC(C6)CC5C7)cc4CC[C@H]3[C@@H]1CC[C@@H]2O (stereo partly drawn) [Example 36b, 2-(2-(Nitrosothio)adamantan-2-yl)ethyl 2-((1S,11S,14S,15S,10R)-14-hydroxy-15-methyltetracyclo(8.7.0.0<2,7>0.0<11,15>)heptadeca-2,4,6-trien-5-yloxy)acetate]	5	48 to 50	–
C[C@]12CC[C@@H]3c4ccc(O)cc4/C(=N/OCC(=O)OCCC4(SN=O)C5CC6CC(C5)CC4C6)C[C@H]3[C@@H]1CC[C@@H]2O (stereo partly drawn) [Example 37, 2-(2-(Nitrosothio)adamantan-2-yl)ethyl 2-(((1S,11S,14S,15S,10R)-5,14-dihydroxy-15-methyltetracyclo(8.7.0.0<2,7>0.0<11,15>)heptadeca-2,4,6-trien-8-ylidene)azamethoxy)acetate]	1.4 to 2	75 to 80	–
CC(C)(CNC(=O)CO/N=C1\C[C@@H]2[C@H](CC[C@]3(C)[C@@H](O)CC[C@@H]23)c2ccc(O)cc21)SN=O [Example 41, 2-(((1S,11S,14S,15S,10R)-5,14-dihydroxy-15-methyltetracyclo(8.7.0.0<2,7>0.0<11,15>)heptadeca-2,4,6-trien-8-ylidene)azamethoxy)-N-(2-methyl-2-(nitrosothio)propyl)acetamide]	10	145 to 150	–
CC(C)(CNC(=O)COc1ccc2c(c1)CC[C@@H]1[C@@H]2CC[C@]2(C)[C@@H](O)CC[C@@H]12)SN=O [Example 42, 2-((1S,11S,14S,15S,10R)-14-Hydroxy-15-methyltetracyclo(8.7.0.0<2,7>0.0<11,15>)heptadeca-2,4,6-trien-5-yloxy)-N-(2-methyl-2-(nitrosothio)propyl)acetamide]	9	40	–
C[C@]12CC[C@@H]3c4ccc(OCC(=O)OCCC5(S)C6CC7CC(C6)CC5C7)cc4CC[C@H]3[C@@H]1CC[C@@H]2O (stereo partly drawn) [Example 45, 2-(2-Sulfanyladamantan-2-yl)ethyl 2-((1S,11S,14S,15S,10R)-14-hydroxy-15-methyltetracyclo(8.7.0.0<2,7>0.0<11,15>)heptadeca-2,4,6-trien-5-yloxy)acetate]	–	78 to 80	8
C[C@]12CC[C@@H]3c4ccc(O)cc4/C(=N/OCC(=O)OCCC4(S)C5CC6CC(C5)CC4C6)C[C@H]3[C@@H]1CC[C@@H]2O (stereo partly drawn) [Example 46, 2-(2-sulfanyladamantan-2-yl)ethyl 2-(((1S,11S,14S,15S,10R)-5,14-dihydroxy-15-methyltetracyclo(8.7.0.0<2,7>0.0<11,15>)heptadeca-2,4,6-trien-8-ylidene)azamethoxy)acetate]	–	85 to 90	5 to 12
CC(C)(S)CNC(=O)CO/N=C1\C[C@@H]2[C@H](CC[C@]3(C)[C@@H](O)CC[C@@H]23)c2ccc(O)cc21 [Example 47, 2-(((1S,11S,14S,15S,10R)-5,14-dihydroxy-15-methyltetracyclo(8.7.0.0<2,7>0.0<11,15>)heptadeca-2,4,6-trien-8-ylidene)azamethoxy)-N-(2-methyl-2-sulfanylpropyl)acetamide]	–	87 to 90	> 80
CC(C)(S)CNC(=O)COc1ccc2c(c1)CC[C@@H]1[C@@H]2CC[C@]2(C)[C@@H](O)CC[C@@H]12 [Example 48, 2-((1S,11S,14S,15S,10R)-14-hydroxy-15-methyltetracyclo(8.7.0.0<2,7>0.0<11,15>)heptadeca-2,4,6-trien-5-yloxy)-N-(2-methyl-2-sulfanylpropyl)acetamide]	–	50 to 52	11
COc1ccc(C=C2c3ccccc3C(=NOCC(=O)NCC(C)(C)SN=O)c3ccccc32)cc1O [Example 51, 2-((10-((3-Hydroxy-4-methoxyphenyl)methylene)(9-anthrylidene))-azamethoxy)-N-(2-methyl-2-(nitrosothio)propyl)acetamide]	10	143 to 145	–
COc1ccc(C=C2c3ccccc3C(=NO)c3ccccc32)cc1O [Example 52, 5-((10-(Hydroxyimino)(9-anthrylidene))methyl)-2-methoxyphenol]	–	140	0.6
C[C@]12CC[C@@H]3c4ccc(OC(=O)c5ccccc5)cc4CC[C@H]3[C@@H]1CC[C@@H]2OC(=O)CCC(=O)O[C@H]1CO[C@H]2[C@@H]1OC[C@H]2O [Example 57, (1S,11S,14S,15S,10R)-15-Methyl-5-phenylcarbonyloxytetracyclo(8.7.0.0<2,7>0.0<11,15>)heptadeca-2,4,6-trien-14-yl(1S,2S,5R,6R)-6-hydroxy-4,8-dioxabicyclo(3.3.0)oct-2-yl butane-1,4-dioate]	–	136 to 137	> 80
C[C@]12CC[C@@H]3c4ccc(OC(=O)CCC(=O)O[C@H]5CO[C@H]6[C@@H]5OC[C@H]6O)cc4CC[C@H]3[C@@H]1CC[C@@H]2O [Example 58, (1S,11S,14S,15S,10R)-14-Hydroxy-15-Methyltetracyclo(8.7.0.0<2,7>0.0<11,15>)heptadeca-2,4,6-trien-5-yl(1S,2S,5R,6R)-6-hydroxy-4,8-dioxabicyclo(3.3.0)oct-2-yl butane-1,4-dioate]	–	79 to 80	12
